Test results as given in patent publication US20120196899A1, “METHODS AND PRODUCTS FOR TREATING INFLAMMATION” (Rock Creek Pharmaceuticals, Inc., priority 2010, published 2012).
“And” between values parts separate entries of the source, which are not always exact repeats. Equal entries are not always repeated.

Assay: Clinical chemistry, day 15
Format: in vivo, Sprague-Dawley rats
Description: On day 15, urine was collected on all surviving animals for urinalysis. The animals were euthanized and bled via cardiac puncture. Blood was collected for hematology, clinical chemistry, and coagulation analysis. Tissues were collected, weighed, and stored in 10% neutral-buffered formalin for possible future analysis.

[1] = anatabine 0.1 mg/kg, female rats, individual animals
[2] = anatabine 0.1 mg/kg, male rats, individual animals
[3] = anatabine 0.75 mg/kg, female rats, individual animals

With `C1=CCC(c2cccnc2)NC1` (racemic) [Anatabine, 1,2,3,6-tetrahydro-[2,3′]bipyridinyl] as the compound, how does the CHLORIDE (Mean, F, 0.1 mg/kg) read?
The CHLORIDE was 100.20 mEq/L.

And the CHOLESTEROL (Mean, F, 0.1 mg/kg)?
Its CHOLESTEROL is 76.40 mg/dL.

And the CREATININE (Mean, F, 0.1 mg/kg)?
Its CREATININE is 0.44 mg/dL.

And the GLUCOSE (Mean, F, 0.1 mg/kg)?
The GLUCOSE was 207.60 mg/dL.

And the PHOSPHORUS (Mean, F, 0.1 mg/kg)?
The PHOSPHORUS was 8.08 mg/dL.

And the POTASSIUM (Mean, F, 0.1 mg/kg)?
Its POTASSIUM is 5.82 mEq/L.

What about the SODIUM (Mean, F, 0.1 mg/kg) of the same compound?
The SODIUM was 146.80 mEq/L.

And the CHLORIDE (Mean, F, 0.75 mg/kg)?
Its CHLORIDE is 98.00 mEq/L.

And the CHOLESTEROL (Mean, F, 0.75 mg/kg)?
Its CHOLESTEROL is 69.80 mg/dL.

And the CREATININE (Mean, F, 0.75 mg/kg)?
Its CREATININE is 0.44 mg/dL.

And the GLUCOSE (Mean, F, 0.75 mg/kg)?
Its GLUCOSE is 220.80 mg/dL.

And the PHOSPHORUS (Mean, F, 0.75 mg/kg)?
The PHOSPHORUS was 8.64 mg/dL.

What about the POTASSIUM (Mean, F, 0.75 mg/kg) of the same compound?
The POTASSIUM was 5.88 mEq/L.

And the SODIUM (Mean, F, 0.75 mg/kg)?
The SODIUM was 145.00 mEq/L.

And the CHLORIDE (Mean, M, 0.1 mg/kg)?
The CHLORIDE was 98.00 mEq/L.

And the CHOLESTEROL (Mean, M, 0.1 mg/kg)?
Its CHOLESTEROL is 67.20 mg/dL.

And the CREATININE (Mean, M, 0.1 mg/kg)?
The CREATININE was 0.36 mg/dL.

What about the PHOSPHORUS (Mean, M, 0.1 mg/kg) of the same compound?
The PHOSPHORUS was 10.82 mg/dL.

What about the POTASSIUM (Mean, M, 0.1 mg/kg) of the same compound?
The POTASSIUM was 6.40 mEq/L.

What about the SODIUM (Mean, M, 0.1 mg/kg) of the same compound?
Its SODIUM is 146.20 mEq/L.

What about the CHLORIDE (Mean, M, 0.75 mg/kg) of the same compound?
Its CHLORIDE is 98.60 mEq/L.

What about the CHOLESTEROL (Mean, M, 0.75 mg/kg) of the same compound?
The CHOLESTEROL was 62.80 mg/dL.

What about the CREATININE (Mean, M, 0.75 mg/kg) of the same compound?
Its CREATININE is 0.36 mg/dL.

What about the GLUCOSE (Mean, M, 0.75 mg/kg) of the same compound?
The GLUCOSE was 202.00 mg/dL.

What about the PHOSPHORUS (Mean, M, 0.75 mg/kg) of the same compound?
The PHOSPHORUS was 10.92 mg/dL.

What about the POTASSIUM (Mean, M, 0.75 mg/kg) of the same compound?
The POTASSIUM was 6.12 mEq/L.

What about the SODIUM (Mean, M, 0.75 mg/kg) of the same compound?
Its SODIUM is 147.80 mEq/L.

And the ALBUMIN [1]?
Its ALBUMIN is 3.6 g/dL (3×) and 3.5 g/dL and 3.8 g/dL.

What about the “ALK PHOSPHATASE” value [1] of the same compound?
The value was 261 IU/L and 140 IU/L and 209 IU/L and 412 IU/L and 220 IU/L.

What about the ALT [1] of the same compound?
The ALT was 57 IU/L and 43 IU/L and 47 IU/L and 62 IU/L and 39 IU/L.

And the AST [1]?
Its AST is 78 IU/L and 69 IU/L and 70 IU/L and 86 IU/L and 82 IU/L.

And the BUN [1]?
Its BUN is 21 mg/dL (2×) and 19 mg/dL (3×).

What about the CHLORIDE [1] of the same compound?
Its CHLORIDE is 99 mEq/L and 102 mEq/L (2×) and 97 mEq/L and 101 mEq/L.

What about the CHOLESTEROL [1] of the same compound?
The CHOLESTEROL was 90 mg/dL and 74 mg/dL and 65 mg/dL and 66 mg/dL and 87 mg/dL.

What about the CREATININE [1] of the same compound?
The CREATININE was 0.4 mg/dL (3×) and 0.5 mg/dL (2×).

And the “DIR BILIRUBIN” value [1]?
The value was 0 mg/dL.

What about the GLOBULIN [1] of the same compound?
Its GLOBULIN is 3.1 g/dL (3×) and 3 g/dL.

And the GLUCOSE [1]?
The GLUCOSE was 224 mg/dL and 170 mg/dL and 227 mg/dL and 220 mg/dL and 197 mg/dL.

And the PHOSPHORUS [1]?
The PHOSPHORUS was 8.5 mg/dL (2×) and 8.2 mg/dL and 7.4 mg/dL and 7.8 mg/dL.

What about the POTASSIUM [1] of the same compound?
Its POTASSIUM is 5.4 mEq/L and 6.3 mEq/L and 5.2 mEq/L and 5.5 mEq/L and 6.7 mEq/L.

And the SODIUM [1]?
Its SODIUM is 147 mEq/L and 145 mEq/L.

And the “TOT BILIRUBIN” value [1]?
Its value is 0 mg/dL.

What about the “TOT PROTEIN” value [1] of the same compound?
Its value is 6.7 g/dL (2×) and 6.3 g/dL and 6.9 g/dL and 6.6 g/dL.

What about the ALBUMIN [2] of the same compound?
Its ALBUMIN is 3.4 g/dL (2×) and 3.2 g/dL and 3.1 g/dL (2×).

What about the “ALK PHOSPHATASE” value [2] of the same compound?
Its value is 470 IU/L and 227 IU/L and 364 IU/L and 358 IU/L and 618 IU/L.

And the ALT [2]?
Its ALT is 92 IU/L and 65 IU/L and 74 IU/L and 44 IU/L and 78 IU/L.

What about the AST [2] of the same compound?
The AST was 97 IU/L and 99 IU/L and 93 IU/L and 85 IU/L and 106 IU/L.

What about the BUN [2] of the same compound?
Its BUN is 18 mg/dL (2×) and 21 mg/dL and 14 mg/dL and 19 mg/dL.

And the CHLORIDE [2]?
Its CHLORIDE is 98 mEq/L and 97 mEq/L (2×) and 99 mEq/L (2×).

What about the CHOLESTEROL [2] of the same compound?
Its CHOLESTEROL is 65 mg/dL and 64 mg/dL and 75 mg/dL and 56 mg/dL and 76 mg/dL.

And the CREATININE [2]?
The CREATININE was 0.4 mg/dL (3×) and 0.3 mg/dL (2×).

What about the “DIR BILIRUBIN” value [2] of the same compound?
The value was 0 mg/dL.

And the GLOBULIN [2]?
Its GLOBULIN is 2.9 g/dL (2×) and 2.6 g/dL and 3.1 g/dL.

And the GLUCOSE [2]?
The GLUCOSE was 258 mg/dL and 214 mg/dL and 194 mg/dL and 210 mg/dL.

And the PHOSPHORUS [2]?
The PHOSPHORUS was 10.3 mg/dL (2×) and 10.8 mg/dL.

What about the POTASSIUM [2] of the same compound?
The POTASSIUM was 5.9 mEq/L and 6.5 mEq/L and 6.6 mEq/L and 6.9 mEq/L and 6.1 mEq/L.

And the SODIUM [2]?
The SODIUM was 144 mEq/L and 147 mEq/L.

And the “TOT BILIRUBIN” value [2]?
The value was 0 mg/dL.

What about the “TOT PROTEIN” value [2] of the same compound?
Its value is 6.3 g/dL (2×) and 5.8 g/dL and 5.9 g/dL and 6.2 g/dL.

And the ALBUMIN [3]?
Its ALBUMIN is 3.5 g/dL (2×) and 3.6 g/dL (2×) and 3.4 g/dL.

What about the “ALK PHOSPHATASE” value [3] of the same compound?
The value was 123 IU/L and 142 IU/L and 235 IU/L and 130 IU/L and 160 IU/L.

And the ALT [3]?
The ALT was 63 IU/L and 49 IU/L (2×) and 55 IU/L and 57 IU/L.

And the AST [3]?
Its AST is 95 IU/L and 69 IU/L and 76 IU/L and 54 IU/L and 72 IU/L.

What about the BUN [3] of the same compound?
The BUN was 15 mg/dL (3×) and 16 mg/dL (2×).
